Results on 14 compounds are retold here after patent US20240343740A1, “MACROCYCLIC GLUCAGON-LIKE PEPTIDE 1 RECEPTOR AGONISTS” (Eli Lilly and Company, priority 2021, published 2024).

Each structure is given as a SMILES string.

Test [1] has as its target T1, human GLP-1R (Homo sapiens, UniProt P43220). Briefly: Human GLP-1 Receptor HEK293 cell cAMP assay, 581 fmol/mg GLP-1R expression density. More on the design: expressed in transfected cells; host or cells: HEK293 clonal cell line. Type of test: cell-based. The note with it: HEK293 cell line with 581 fmol/mg expression density of GLP-1R; for EC50: geometric mean, read-out: EC50 nM (SEM, n), intracellular cAMP response, relative EC50; for Emax: percent of maximal response to GLP-1(7-36)NH2, arithmetic mean, read-out: Emax % (SEM, n), intracellular cAMP response. The method, then: (§1) Human GLP-1 Receptor HEK293 Cell cAMP Assay
(§2) GLP-1 Receptor functional activity is determined using cAMP formation in an HEK293 clonal cell line expressing human GLP-1R (NCBI accession number NP_002053) at an expression density of 581±94 (n=6) and 104±12 (n=5) fmol/mg protein (determined using [^125I]GLP-1(7-36)NH2 homologous competition binding analysis). The hGLP-1R receptor expressing cells are treated with compound (20 point concentration-response curve in DMSO, 2.75-fold Labcyte Echo direct dilution, 384 well plate Corning Cat #3570) in DMEM (Gibco Cat #31053) supplemented with 1× GlutaMAX™ (Gibco Cat #35050), 0.1% bovine casein (Sigma C4765-10ML), 250 μM IBMX (3-Isobutyl-1-methylxanthine, Acros Cat #228420010) and 20 mM HEPES (Gibco Cat #15630) in a 20 μL assay volume (final DMSO concentration is 0.5%). After a 30 min incubation at 37° C., the resulting increase in intracellular cAMP is quantitatively determined using the CisBio cAMP Dynamic 2 HTRF Assay Kit (62AM4PEJ). Briefly, cAMP levels within the cell are detected by adding the cAMP-d2 conjugate in cell lysis buffer (10 μL) followed by the antibody anti-cAMP-Eu^3+-Cryptate, also in cell lysis buffer (10 μL). The resulting competitive assay is incubated for at least 60 min at RT, then detected using a PerkinElmer Envision® instrument with excitation at 320 nm and emission at 665 nm and 620 nm. Envision units (emission at 665 nm/620 nm*10,000) are inversely proportional to the amount of cAMP present and are converted to nM cAMP per well using a cAMP standard curve. The amount of cAMP generated (nM) in each well is converted to a percent of the maximal response observed with human GLP-1(7-36)NH2. A relative EC50 value and percent top (Emax) are derived by non-linear regression analysis using the percent maximal response vs. the concentration of compound added, fitted to a four-parameter logistic equation.
A general note: cAMP levels reflect the balance of adenylyl cyclase and phosphodiesterase activity.

Test [2] deals with T1, human GLP-1R. The experiment in a line: Human GLP-1 Receptor HEK293 cell cAMP assay, 104 fmol/mg GLP-1R expression density. Type of test: cell-based. More on the design: expressed in transfected cells; host or cells: HEK293 clonal cell line. The following applies: HEK293 cell line with 104 fmol/mg expression density of GLP-1R; for EC50: geometric mean, read-out: EC50 nM (SEM, n), intracellular cAMP response, relative EC50; for Emax: percent of maximal response to GLP-1(7-36)NH2, arithmetic mean, read-out: Emax % (SEM, n), intracellular cAMP response. How it is done: as §1, §2

T1 sequence (P43220 24-463): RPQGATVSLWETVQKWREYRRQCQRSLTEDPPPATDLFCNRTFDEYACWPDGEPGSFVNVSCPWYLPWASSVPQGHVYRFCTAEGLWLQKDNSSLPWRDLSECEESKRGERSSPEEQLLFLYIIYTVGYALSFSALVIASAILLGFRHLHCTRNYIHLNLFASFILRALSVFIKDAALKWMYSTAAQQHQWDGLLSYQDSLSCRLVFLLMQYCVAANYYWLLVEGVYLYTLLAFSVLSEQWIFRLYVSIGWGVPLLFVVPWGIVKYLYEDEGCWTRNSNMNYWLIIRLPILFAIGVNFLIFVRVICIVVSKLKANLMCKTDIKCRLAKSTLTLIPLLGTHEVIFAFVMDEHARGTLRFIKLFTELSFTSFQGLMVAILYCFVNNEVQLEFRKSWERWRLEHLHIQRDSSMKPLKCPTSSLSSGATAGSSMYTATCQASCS

As usually defined, the EC50 is the concentration needed to bring the measured effect to its halfway point. Broadly, the Emax is the greatest response seen or fitted, relative to the assay's reference. `N#Cc1ccc2c(c1)CCCOc1cc(ccc1Cc1nc3ccc(C(=O)O)cc3n1C[C@@H]1CCO1)-c1cccc(n1)OC2` [Example 4, (S)-2-((5^4-Cyano-3,9-dioxa-2(2,6)-pyridina-1(1,3),5(1,2)-dibenzenacyclononaphane-1^4-yl)methyl)-1-(oxetan-2-ylmethyl)-1H-benzo[d]imidazole-6-carboxylic acid]: on human GLP-1R [1], the EC50 turned out to be 90.6 nM and the maximum response (Emax) stood at 99.2%. Further, at human GLP-1R [2], the EC50 is 384 nM and the Emax stood at 78.7%.
Turning to `COc1cc(C(=O)O)cc2c1nc(Cc1ccc3cc1OCCCc1cc(C#N)ccc1COc1cccc-3n1)n2C[C@@H]1CCO1` [Example 5, (S)-2-((5^4-Cyano-3,9-dioxa-2(2,6)-pyridina-1(1,3),5(1,2)-dibenzenacyclononaphane-1^4-yl)methyl)-4-methoxy-1-(oxetan-2-ylmethyl)-1H-benzo[d]imidazole-6-carboxylic acid], at human GLP-1R [1], the EC50 worked out at 6.58 nM and the Emax came out at 109%. Further, on human GLP-1R [2], the EC50 was 22.3 nM and the Emax came to 81.6%.
As for `N#Cc1ccc2c(c1)CCCOc1cc(ccc1Cc1nc3ccc(C(=O)O)nc3n1C[C@@H]1CCO1)-c1cccc(n1)OC2` [Example 6, (S)-2-((5^4-Cyano-3,9-dioxa-2(2,6)-pyridina-1(1,3),5(1,2)-dibenzenacyclononaphane-1^4-yl)methyl)-3-(oxetan-2-ylmethyl)-3H-imidazo[4,5-b]pyridine-5-carboxylic acid], at human GLP-1R [1], the half-maximal effective concentration (EC50) turned out to be 166 nM and the maximal response (Emax) was 97.2%. Further, at human GLP-1R [2], the half-maximal effective concentration (EC50) came to 1020 nM and the Emax is 89.1%.
Take `N#Cc1ccc2c(c1)CCCOc1cc(ccc1Cc1nc3c(F)cc(C(=O)O)cc3n1C[C@@H]1CCO1)-c1cccc(n1)OC2` [Example 7, (S)-2-((5^4-cyano-3,9-dioxa-2(2,6)-pyridina-1(1,3),5(1,2)-dibenzenacyclononaphane-1^4-yl)methyl)-4-fluoro-1-(oxetan-2-ylmethyl)-1H-benzo[d]imidazole-6-carboxylic acid]: the results for the EC50 at human GLP-1R [1] and on human GLP-1R [2] were 20.1 nM and 96.8 nM, respectively. Moreover, the results for the Emax at human GLP-1R [1] and on human GLP-1R [2] were 104% and 92.9%, respectively.
Turning to `N#Cc1ccc2c(c1)CCCOc1cc(c(F)cc1Cc1nc3ccc(C(=O)O)cc3n1C[C@@H]1CCO1)-c1cccc(n1)NC2` [Example 8, (S)-2-((5^4-Cyano-1^6-fluoro-9-oxa-3-aza-2(2,6)-pyridina-1(1,3),5(1,2)-dibenzenacyclononaphane-1^4-yl)methyl)-1-(oxetan-2-ylmethyl)-1H-benzo[d]imidazole-6-carboxylic acid], the figures for the 50% effective concentration (EC50) at human GLP-1R [1] and on human GLP-1R [2] were 168 nM and 815 nM, respectively. Further, the Emax on human GLP-1R [1] stood at 90.5%; on human GLP-1R [2], 81.5%.
For `COc1cc(C(=O)O)cc2c1nc(Cc1cc(C)c3cc1OCCCc1cc(C#N)ccc1COc1cccc-3n1)n2C[C@@H]1CCO1` [Example 9, (S)-2-((5^4-Cyano-16-methyl-3,9-dioxa-2(2,6)-pyridina-1(1,3),5(1,2)-dibenzenacyclononaphane-1^4-yl)methyl)-4-methoxy-1-(oxetan-2-ylmethyl)-1H-benzo[d]imidazole-6-carboxylic acid], the EC50 worked out at 1.8 nM on human GLP-1R [1] and 5.44 nM on human GLP-1R [2]. Besides, the Emax worked out at 118% at human GLP-1R [1] and 83.1% on human GLP-1R [2].
Regarding `N#Cc1ccc2cc1CCCOc1cc(c(F)cc1Cc1nc3ccc(C(=O)O)cc3n1C[C@@H]1CCO1)-c1cccc(n1)OC2` [Example 10, (S)-2-((5^4-Cyano-1^6-fluoro-3,9-dioxa-2(2,6)-pyridina-1,5(1,3)-dibenzenacyclononaphane-1^4-yl)methyl)-1-(oxetan-2-ylmethyl)-1H-benzo[d]imidazole-6-carboxylic acid], on human GLP-1R [1], the EC50 amounted to 35.3 nM and the Emax amounted to 107%. In addition, on human GLP-1R [2], the half-maximal effective concentration (EC50) was determined as 147 nM and the Emax stood at 88.9%.
As for `CCn1cncc1Cn1c(Cc2ccc3cc2OCCCc2cc(C#N)ccc2COc2cccc-3n2)nc2ccc(C(=O)O)cc21` [Example 11, 2-((5^4-cyano-3,9-dioxa-2(2,6)-pyridina-1(1,3),5(1,2)-dibenzenacyclononaphane-1^4-yl)methyl)-1-((1-ethyl-1H-imidazol-5-yl)methyl)-1H-benzo[d]imidazole-6-carboxylic acid], on human GLP-1R [1], the EC50 was determined as 35 nM and the maximum response (Emax) is 92%. Moreover, at human GLP-1R [2], the EC50 was determined as 194 nM and the Emax amounted to 81%.
Take `N#Cc1ccc2c(c1)OCCOc1cc(c(F)cc1Cc1nc3ccc(C(=O)O)cc3n1C[C@@H]1CCO1)-c1cccc(n1)OC2` [Example 13, (S)-2-((5^4-Cyano-1^6-fluoro-3,6,9-trioxa-2(2,6)-pyridina-1(1,3),5(1,2)-dibenzenacyclononaphane-1^4-yl)methyl)-1-(oxetan-2-ylmethyl)-1H-benzo[d]imidazole-6-carboxylic acid]: on human GLP-1R [1], the half-maximal effective concentration (EC50) came out at 120 nM and the maximum response (Emax) was 88.5%. Besides, on human GLP-1R [2], the EC50 was 542 nM and the maximal effect (Emax) is 74.7%.
For `N#Cc1ccc2c(c1)COCc1cc(c(F)cc1Cc1nc3ccc(C(=O)O)cc3n1C[C@@H]1CCO1)-c1cccc(n1)OC2` [Example 14, (S)-2-((5^4-Cyano-1^6-fluoro-3,7-dioxa-2(2,6)-pyridina-1(1,3),5(1,2)-dibenzenacyclooctaphane-1^4-yl)methyl)-1-(oxetan-2-ylmethyl)-1H-benzo[d]imidazole-6-carboxylic acid], the EC50 was 72.3 nM at human GLP-1R [1] and 228 nM at human GLP-1R [2]. Besides, the maximum response (Emax) turned out to be 109% on human GLP-1R [1] and 82.5% at human GLP-1R [2].
For `COc1cc(C(=O)O)cc2c1nc(Cc1cc(C)c3cc1OCCCc1cc(C#N)ccc1COc1cccc-3c1)n2C[C@@H]1CCO1` [Example 15, (S)-2-((5^4-Cyano-1^6-methyl-3,9-dioxa-1,2(1,3),5(1,2)-tribenzenacyclononaphane-1^4-yl)methyl)-4-methoxy-1-(oxetan-2-ylmethyl)-1H-benzo[d]imidazole-6-carboxylic acid], at human GLP-1R [1], the EC50 stood at 6.74 nM and the maximum response (Emax) came to 105%. For the same compound, at human GLP-1R [2], the EC50 worked out at 26.4 nM and the maximal response (Emax) worked out at 82.8%.
Consider `COc1cc(C(=O)O)cc2c1nc(Cc1cc(C)c3cc1OCCCc1cc(C(F)(F)F)ccc1COc1cccc-3n1)n2C[C@@H]1CCO1` [Example 16, (S)-4-Methoxy-2-((1^6-methyl-5^4-(trifluoromethyl)-3,9-dioxa-2(2,6)-pyridina-1(1,3),5(1,2)-dibenzenacyclononaphane-1^4-yl)methyl)-1-(oxetan-2-ylmethyl)-1H-benzo[d]imidazole-6-carboxylic acid], for which, on human GLP-1R [1], the EC50 stood at 1.95 nM and the Emax was found to be 125%. At human GLP-1R [2], the 50% effective concentration (EC50) worked out at 4.02 nM and the Emax amounted to 86.7%.
For the compound `COc1cc(C(=O)O)cc2c1nc(Cc1cc(F)c3cc1COCc1cc(C#N)ccc1COc1cccc-3n1)n2C[C@@H]1CCO1` [Example 17, (S)-2-((5^4-cyano-1^6-fluoro-3,7-dioxa-2(2,6)-pyridina-1(1,3),5(1,2)-dibenzenacyclooctaphane-1^4-yl)methyl)-4-methoxy-1-(oxetan-2-ylmethyl)-1H-benzo[d]imidazole-6-carboxylic acid], the concentration for a half-maximal effect (EC50) was determined as 10.5 nM at human GLP-1R [1] and 38.4 nM at human GLP-1R [2]. The figures for the Emax at human GLP-1R [1] and at human GLP-1R [2] were 121% and 84.6%, respectively.
Consider `O=C(O)c1ccc2nc(Cc3ccc4cc3OCCCc3cc(Br)ccc3COc3cccc-4n3)n(C[C@@H]3CCO3)c2c1` [Example 18, (S)-2-((5^4-Bromo-3,9-dioxa-2(2,6)-pyridina-1(1,3),5(1,2)-dibenzenacyclononaphane-1^4-yl)methyl)-1-(oxetan-2-ylmethyl)-1H-benzo[d]imidazole-6-carboxylic acid], for which, at human GLP-1R [1], the 50% effective concentration (EC50) stood at 50.3 nM and the maximal response (Emax) is 115%. On human GLP-1R [2], the concentration giving a half-maximal response (EC50) came out at 169 nM and the maximum response (Emax) is 94.9%.
